Read-outs that look alike come from different tables or passages of the source. Each block holds one compound with its values, some of them ahead of it.
What was measured:
[1] = system: CYP3A; settings: 2021, cited from earlier work
[2] = Adverse events (NCI CTCAE v5.0), Phase Ib study; assay type: in vivo, human; settings: for Patients with AE leading to discontinuation of the drug / Patients with AE leading to dose interruption of the drug / Patients with AE leading to dose reduction of the drug / Patients with AE related to the drug: all enrolled patients
Source text: Safety assessments consisted of monitoring and recording adverse events, including serious adverse events and adverse events of special interest, performing protocol-specified safety laboratory assessments, measuring protocol-specified vital signs, and conducting other protocol-specified tests that are deemed critical to the safety evaluation of the study. The adverse event severity grading scale for the NCI Common Terminology Criteria for Adverse Events (CTCAE) v5.0 was used for assessing adverse event severity. If daily dosing of ipatasertib was not tolerated, dosing with food might be used to alleviate gastrointestinal symptoms. […] For ipatasertib, with a starting dose of 300 mg, the first dose reduction was to 200 mg and the second down to 100 mg.

[3] = Palbociclib PK parameters estimated with established popPK model; assay type: in vivo, human
[4] = cited from earlier work
[5] = Palbociclib predose plasma concentrations (LC-MS/MS), Phase Ib study; assay type: in vivo, human; settings: for Palbociclib plasma concentration, C2D15 predose / Palbociclib plasma concentration, C1D15 predose / Palbociclib plasma concentration, C3D15 predose: 125 mg, Geomean (geoCV%)
[6] = system: CYP3A; set-up: method as in Jing et al., 2022; settings: ipatasertib 300 mg in the presence of palbociclib; ref Jing et al., 2022; cited from earlier work
[7] = Steady-state plasma PK of ipatasertib and M1 (LC-MS/MS, noncompartmental analysis), Phase Ib study; assay type: in vivo, human; settings: for Tmax: 300 mg, median (range)
Experimental: From Cycle 2 Day 1 onward, ipatasertib was taken orally and daily on Days 1–21 of each 28-day cycle. […] Additionally, fulvestrant 500 mg was given via intramuscular (IM) injection on Days 1 and 15 of Cycle 1, and then on Day 1 of each subsequent 28-day cycle. […] The initial safety follow-up extended through at least Day 15 of Cycle two for all patients. […] PK samples for ipatasertib and its major metabolite, M1 (G-037720), were collected at specified time points: 15 min pre-dose, 0.5, 1, 2, 3, 4, 6 h post-dose on Day 1 of Cycle 1, and Day 15 of Cycle 1, as well as 15 min pre-dose on Day 15 of Cycle 2 and 15 min pre-dose and 2 h post-dose on Day 15 of Cycle 3. […] The plasma concentrations of ipatasertib and its metabolite M1 was determined using a previously reported, validated liquid chromatography-tandem mass spectrometry assay (LC-MS/MS) ([Sutaria et al., 2022]). […] The sample analyses were performed at Labcorp Early Drug Development Laboratories, Inc. (Madison, WI, Unitd States) using a Shimadzu LC instrument equipped with an Agilent Polaris C8-A column (2.0 × 50 mm, 5 μm) interfaced with a Sciex API 4000 mass spectrometer operated in positive electrospray ionization mode. […] Noncompartmental PK analysis (NCA) was performed using the commercial software Phoenix WinNonlin (Certara Unitd States, Inc., Princeton, NJ, Unitd States, Version 8.1) to characterize the PK parameters of ipatasertib and M1 including maximal concentration (Cmax), time to maximal concentration (Tmax), area under the curve from time 0 to the last measurable concentration (AUC0-t). […] Non-compartmental PK analyses were performed using Phoenix(R) WinNonlin (Version 8.3, Certara). […] A linear mixed model with a fixed effect for treatment and a random effect for patients was used on the natural log-transformed PK parameters.

[8] = system: CYP3A; settings: 2021, cited from earlier work; remark: listed apart in the source
[9] = palbociclib administered alone, ref U.S. Food and Drug Administration, 2014
[10] = additional patients for safety evaluation, N 9
[11] = 300 mg QD with 125 mg palbociclib and fulvestrant vs alone
[12] = C1D15 (with palbociclib and fulvestrant) / C1D1 (ipatasertib alone)
[13] = human, plasma, oral, C1D1, ipatasertib 300 mg QD alone, N = 9, geometric mean (%geoCV)
[14] = ipatasertib coadministered with palbociclib and fulvestrant vs ipatasertib alone
[15] = ipatasertib 100 mg single dose with itraconazole, ref Sane et al.

SMILES: C[C@]12CC[C@@H]3c4ccc(O)cc4C[C@@H](CCCCCCCCC[S+]([O-])CCCC(F)(F)C(F)(F)F)[C@H]3[C@@H]1CC[C@@H]2O (some centres unmarked) [Fulvestrant]
CYP3A inhibition / induction classification ([1]; ref U.S. Food and Drug Administration): not an inhibitor or inducer of CYP3A
Patients with AE leading to discontinuation of the drug [2]: 0 Number of patients (%)
Patients with AE leading to dose interruption of the drug [2]: 5 (25%) Number of patients (%)
Patients with AE leading to dose reduction of the drug [2]: 0 Number of patients (%)
Patients with AE related to the drug [2]: 16 (80%) Number of patients (%)
AE considered related to the drug: anemia ([2]; triplet regimen, 20 patients): 10%
AE considered related to the drug: asthenia ([2]; triplet regimen, 20 patients): 15%
AE considered related to the drug: hot flush ([2]; triplet regimen, 20 patients): 10%

AUC over 24 h dosing interval at steady state ([3]; human, plasma, oral, 125 mg, read-out: AUC0-24,ss (popPK-estimated)): 2600 ng·h/mL
Cmax,ss (popPK-estimated) ([3]; palbociclib 125 mg with ipatasertib and fulvestrant, geometric mean (%CV)): 124 ng/mL
Palbociclib plasma concentration, C1D15 predose ([5]; ipatasertib run-in group, N 9): 69.9 (57.2) ng/mL
Palbociclib plasma concentration, C2D15 predose ([5]; ipatasertib run-in group, N 10): 76.9 (44.9) ng/mL
Palbociclib plasma concentration, C3D15 predose ([5]; ipatasertib run-in group, N 10): 71.5 (43.5) ng/mL
Palbociclib plasma concentration, C2D15 predose ([5]; total, N 16): 79.2 (36.4) ng/mL
Palbociclib plasma concentration, C1D15 predose ([5]; total, N 18): 71.8 (40.8) ng/mL
Palbociclib plasma concentration, C3D15 predose ([5]; total, N 19): 69.6 (45.7) ng/mL
Cmin ([5]; palbociclib in this study with ipatasertib and fulvestrant (summary of Table 3)): approximately 70 ng/mL
SMILES: CC(=O)c1c(C)c2cnc(Nc3ccc(N4CCNCC4)cn3)nc2n(C2CCCC2)c1=O [Palbociclib]
AUC0-24,ss [4, 9]: 1982 ng·h/mL
Cmax,ss [4, 9]: 116 ng/mL
Palbociclib plasma concentration, C2D15 predose ([5]; additional patients for safety evaluation, N 6): 83.2 (19.4) ng/mL
Palbociclib plasma concentration, C1D15 predose [5, 10]: 73.8 (20.7) ng/mL
Palbociclib plasma concentration, C3D15 predose [5, 10]: 67.5 (51.0) ng/mL
Patients with AE leading to discontinuation of the drug [2]: 1 (5%) Number of patients (%)
Patients with AE leading to dose interruption of the drug [2]: 13 (65%) Number of patients (%)
Patients with AE leading to dose reduction of the drug [2]: 10 (50%) Number of patients (%)
Patients with AE related to the drug [2]: 20 (100%) Number of patients (%)
AE considered related to the drug: anemia ([2]; triplet regimen, 20 patients): 40%
AE considered related to the drug: asthenia ([2]; triplet regimen, 20 patients): 25%
AE considered related to the drug: diarrhea ([2]; triplet regimen, 20 patients): 30%
AE considered related to the drug: nausea ([2]; triplet regimen, 20 patients): 40%
AE considered related to the drug: neutropenia ([2]; triplet regimen, 20 patients): 45%
AE considered related to the drug: neutrophil count decreased ([2]; triplet regimen, 20 patients): 40%
AE considered related to the drug: platelet count decreased ([2]; triplet regimen, 20 patients): 30%
AE considered related to the drug: stomatitis ([2]; triplet regimen, 20 patients): 25%

SMILES: CC(C)NC[C@@H](C(=O)N1CCN(c2ncnc3c2[C@H](C)C[C@H]3O)CC1)c1ccc(Cl)cc1 [Ipatasertib]
PBPK-predicted increase in AUC [6]: 48%
PBPK-predicted increase in Cmax [6]: 23%
Increase in AUC0-24,ss [7, 11]: 1.68 fold
Increase in Cmax,ss [7, 11]: 1.49 fold
AUC0-24,ss at 300 mg in presence of palbociclib relative to 400 mg in other clinical studies ([7]; 3,637 vs 2,920 ng*hr/mL): about 1.25 times
AUC0-24,ss geometric mean ratio (GMR) (90% CI) [7, 12]: 1.68 (1.41, 2.00)
Cmax,ss geometric mean ratio (GMR) (90% CI) [7, 12]: 1.49 (1.18, 1.88)
Tmax ([7]; human, plasma, oral, C1D1, ipatasertib 300 mg QD alone): 1 h
Tmax ([7]; human, plasma, oral, C1D15, ipatasertib 300 mg QD with palbociclib and fulvestrant): 1.9 h
AUC0-24,ss [7, 13]: 2170 ng·h/mL
Cmax [7, 13]: 294 ng/mL
Increase in AUC0-24,ss [7, 14]: 68%
Increase in Cmax,ss [7, 14]: 49%
Effective half-life ([4]; background statement, no reference printed with the sentence): approximately 24 h
AUC0-24,ss ([4]; ipatasertib 400 mg in other clinical studies, ref Yoshida et al., 2021): 2,920 ng*hr/mL
Dose proportionality of exposure ([4]; over the range of 200–800 mg, no reference printed with the sentence): dose-proportional
Increase in AUC0-∞ with itraconazole [8, 15]: 5.45 fold
Increase in Cmax with itraconazole [8, 15]: 2.26 fold
Increase in AUC0-∞ of midazolam ([8]; single dose of ipatasertib 600 mg with midazolam, ref Malhi et al.): 2.22 fold
CYP3A inhibition classification ([1]; in vitro, ref Malhi et al.): mild to moderate CYP3A inhibitor
CYP3A4 substrate classification ([1]; ref Sane et al.): sensitive substrate
Patients with AE leading to discontinuation of the drug [2]: 1 (5%) Number of patients (%)
Patients with AE leading to dose interruption of the drug [2]: 16 (80%) Number of patients (%)
Patients with AE leading to dose reduction of the drug [2]: 9 (45%) Number of patients (%)
Patients with AE related to the drug [2]: 20 (100%) Number of patients (%)
AE considered related to the drug: anemia ([2]; triplet regimen, 20 patients): 30%
AE considered related to the drug: diarrhea ([2]; triplet regimen, 20 patients): 75%
AE considered related to the drug: fatigue ([2]; triplet regimen, 20 patients): 25%
AE considered related to the drug: nausea ([2]; triplet regimen, 20 patients): 70%
AE considered related to the drug: neutropenia ([2]; triplet regimen, 20 patients): 30%
AE considered related to the drug: neutrophil count decreased ([2]; triplet regimen, 20 patients): 25%
AE considered related to the drug: platelet count decreased ([2]; triplet regimen, 20 patients): 30%
AE considered related to the drug: rash ([2]; triplet regimen, 20 patients): 35%
AE considered related to the drug: vomiting ([2]; triplet regimen, 20 patients): 45%
